{"source": "patent US10017459B2", "about": "“β-substituted β-amino acids and analogs as chemotherapeutic agents and uses thereof” (Quadriga Biosciences, Inc., priority 2015, dated 2018)", "key": {"U251": {"tested_on": "U251", "assay": "cells", "assay_type": "cell-based", "conditions": "Homo sapiens, U-251, read-out: IC50 (in vitro toxicity)"}, "LN229": {"tested_on": "LN229", "assay": "cells", "assay_type": "cell-based", "conditions": "Homo sapiens, LN-229, read-out: IC50 (in vitro toxicity)"}, "DBRTG": {"tested_on": "DBRTG", "assay": "cells", "assay_type": "cell-based", "conditions": "read-out: IC50 (in vitro toxicity)"}, "G55": {"tested_on": "G55", "assay": "cells", "assay_type": "cell-based", "conditions": "read-out: IC50 (in vitro toxicity)"}, "794": {"tested_on": "794", "assay": "cells", "assay_type": "cell-based", "conditions": "read-out: IC50 (in vitro toxicity)"}, "HCT116": {"tested_on": "HCT116", "assay": "In vitro cytotoxicity, HCT116", "assay_type": "cell-based", "conditions": "Homo sapiens, HCT-116, read-out: IC50 (in vitro toxicity)"}, "MCF7": {"tested_on": "MCF7", "assay": "In vitro cytotoxicity, MCF7", "assay_type": "cell-based", "conditions": "Homo sapiens, MCF7, read-out: IC50 (in vitro toxicity)"}, "MDA-MB-231 [1]": {"tested_on": "MDA-MB-231", "assay": "cells", "assay_type": "cell-based", "conditions": "Homo sapiens, MDA-MB-231, read-out: IC50 (in vitro toxicity)"}, "KMS34": {"tested_on": "KMS34", "assay": "cells", "assay_type": "cell-based", "conditions": "KMS-34, read-out: IC50 (in vitro toxicity)"}, "MM1.S": {"tested_on": "MM1.S", "assay": "cells", "assay_type": "cell-based", "conditions": "Homo sapiens, read-out: IC50 (in vitro toxicity)"}, "HS27A": {"tested_on": "HS27A", "assay": "cells", "assay_type": "cell-based", "conditions": "HS-27A, read-out: IC50 (in vitro toxicity)"}, "KMS11": {"tested_on": "KMS11", "assay": "cells", "assay_type": "cell-based", "conditions": "Homo sapiens, KMS-11, read-out: IC50 (in vitro toxicity)"}, "HS5": {"tested_on": "HS5", "assay": "cells", "assay_type": "cell-based", "conditions": "HS5, read-out: IC50 (in vitro toxicity)"}, "Mia-PaCa2": {"tested_on": "Mia-PaCa2", "assay": "In vitro cytotoxicity, Mia-PaCa2", "assay_type": "cell-based", "conditions": "Homo sapiens, MIA PaCa-2, read-out: IC50 (in vitro toxicity)"}, "MDA-MB-231 [2]": {"tested_on": "MDA-MB-231", "assay": "Breast cancer xenograft study, IP dosing", "assay_type": "in vivo, mouse", "procedure": "The efficacy of compounds provided by the present disclosure was evaluated on a triple negative breast cancer xenograft model—MDA-MB-231. The tumors were implanted into mice and the study was initiated after the volume of the tumors was 140 mm^3. The animals were IP dosed once a week or 3 times per week for 3 weeks with either vehicle or 1.25 mg/kg, 2.5 mg/kg, or 5 mg/kg of compound (5). The tumor volume, body weight, white blood cell count, and granulocyte count were determined during the study and 20 days after the final dose was administered. […] Tumor growth remained about 90% suppressed 20 days post-dosing following the 5 mg/kg treatment regimens."}, "PC3 tumors": {"tested_on": "PC3 tumors", "assay": "Prostate cancer xenograft study, large tumor study", "assay_type": "in vivo, mouse", "procedure": "PC3 tumors were implanted into mice and the study was initiated after the volume of the tumors was 500 mm^3. Five (5) mg/kg compound (5) was administered by IP injection three times per week for two weeks. The tumor size, body weight, white cell count, and granulocyte count were measured.\nIn a counterpart study, mice in which the PC3 tumor size was at least 500 mm^3 were administered either 7.5 mg/kg or 10 mg/kg compound (5) three times a week for four weeks. In these studies, the mice were first administered a dose of either 2.5 mg/kg or 1.25 mg/kg, three times per week for three weeks. The tumor size, body weight, white cell count, and granulocyte count were measured. The tumor volume for the 7.5 mg/kg dosing regimen is resented in FIGS. 8A-8D, and for the 10 mg/kg dosing regimen in FIGS. 9A-9D."}, "MDA-MB-231 [3]": {"tested_on": "MDA-MB-231", "assay": "Triple negative breast cancer study, IV dosing", "assay_type": "in vivo, mouse", "conditions": "IV once a week for 8 weeks", "procedure": "The efficacy of compounds provided by the present disclosure was evaluated on a triple negative breast cancer xenograft model—MDA-MB-231. Human triple negative breast cancer cells were implanted into the flank of nude mice and the study was initiated after the volume of the tumors was 150 mm^3. The animals were IV dosed once a week for 8 weeks with either vehicle or 5 mg/kg of compound (5), or 20 mg/kg compound (7). The tumor volume, body weight, white blood cell count, and granulocyte count were determined during the study and 12 days after the final dose was administered."}, "U251 MG [4]": {"tested_on": "U251 MG", "assay": "Orthotopic glioblastoma study (Example 83)", "assay_type": "in vivo, mouse", "conditions": "athymic mice, 10 mg/kg IP once weekly for 4 weeks", "procedure": "(§1) The efficacy of compounds provided by the present disclosure was evaluated using an orthotopic luciferase human glioblastoma model—U251 MG. Human glioblastoma cells were intracolonically injected (3×10^5 cells/3 μL) into athymic mice (female, 4-5 weeks-old, nu/un homozygous). Treatment began when the BLI reached a log-phase growth, at about 14 days after injection. Ten mice were assigned to each arm of the study. The mice were dosed with vehicle (IP, once weekly for 4 weeks), temozolomide (TMZ, 4 mg/kg, OG once daily for 5 days), or compound (5) (10 mg/kg, IP once weekly for 4 weeks). The tumor volume was measured using bioluminescence imaging."}, "U251 MG [5]": {"tested_on": "U251 MG", "assay": "Orthotopic glioblastoma study (Example 84)", "assay_type": "in vivo, mouse", "conditions": "5 mg/kg and 10 mg/kg IV once weekly for 4 weeks", "procedure": "as §1, with “weeks), compound (5) (5 mg/kg, IV once weekly for” for “weeks), temozolomide (TMZ,”, “4 weeks),” for “4 mg/kg, OG once daily for 5 days), or”, “mg/kg, IV” for “mg/kg, IP”, “4 weeks), compound (40) (10 mg/kg, IV once weekly for 4 weeks), or compound (50) (20 mg/kg, IV single dose).” for “4 weeks).”"}, "[6]": {"tested_on": "Human prostate cancer PC3 cells", "conditions": "mouse, in vivo"}, "[7]": {"conditions": "5 mg/kg IP three times per week for two weeks"}, "[8]": {"conditions": "7.5 mg/kg or 10 mg/kg dosing regimens"}}}
{"smiles": "Cc1ccc(N(CCCl)CCCl)cc1C[C@H](N)CC(=O)O", "note": "[Compound 5, (3S)-3-Amino-4-[5-[bis(2-chloroethyl)amino]-2-methyl-phenyl]butanoic Acid]", "values": [{"measurement": "IC50", "setting": "U251", "result": "< 100", "unit": "µM"}, {"measurement": "IC50", "setting": "LN229", "result": "< 100", "unit": "µM"}, {"measurement": "IC50", "setting": "DBRTG", "result": "< 100", "unit": "µM"}, {"measurement": "IC50", "setting": "G55", "result": "< 100", "unit": "µM"}, {"measurement": "IC50", "setting": "794", "result": "< 100", "unit": "µM"}, {"measurement": "IC50", "setting": "HCT116", "result": "< 100", "unit": "µM"}, {"measurement": "IC50", "setting": "MCF7", "result": "< 100", "unit": "µM"}, {"measurement": "IC50", "setting": "MDA-MB-231 [1]", "result": "< 100", "unit": "µM"}, {"measurement": "IC50", "setting": "KMS34", "result": "> 100", "unit": "µM"}, {"measurement": "IC50", "setting": "MM1.S", "result": "< 100", "unit": "µM"}, {"measurement": "IC50", "setting": "HS27A", "result": "> 100", "unit": "µM"}, {"measurement": "IC50", "setting": "KMS11", "result": "> 100", "unit": "µM"}, {"measurement": "IC50", "setting": "HS5", "result": "> 100", "unit": "µM"}, {"measurement": "IC50", "setting": "Mia-PaCa2", "result": "< 100", "unit": "µM"}, {"measurement": "tumor growth post-treatment", "setting": "MDA-MB-231 [2]; 1.25 mg/kg and 2.5 mg/kg regimens, IP", "result": "demonstrated a dose response"}, {"measurement": "growth of the tumors", "setting": "MDA-MB-231 [2]; 2.5 mg/kg and 5 mg/kg dosing regimens, IP once a week or 3 times per week for 3 weeks", "result": "nearly completely suppressed"}, {"measurement": "tumor growth suppression 20 days post-dosing", "setting": "MDA-MB-231 [2]; 5 mg/kg treatment regimens, IP", "result": "about 90%"}, {"measurement": "animal body weights", "setting": "MDA-MB-231 [2]; all dosing regimens", "result": "increased"}, {"measurement": "white blood cell count and granulocyte count", "setting": "MDA-MB-231 [2]; during and following treatment, all dosing regimens", "result": "remained within normal range"}, {"measurement": "body weight", "setting": "PC3 tumors; [7]", "result": "decreased"}, {"measurement": "cell counts (white cell, granulocyte)", "setting": "PC3 tumors; [7]", "result": "remained within the normal range"}, {"measurement": "body weights", "setting": "PC3 tumors; [8]", "result": "remained about the same"}, {"measurement": "cell counts (white cell, granulocyte)", "setting": "PC3 tumors; [8]", "result": "remained within the normal range"}, {"measurement": "tumor growth rate, large tumors", "setting": "PC3 tumors; tumors 500 mm3, 5 mg/kg IP three times per week for two weeks", "result": "growth rate slowed for some large tumors"}, {"measurement": "PC3 tumor growth, large tumors", "setting": "PC3 tumors; tumors at least 500 mm3, 7.5 mg/kg or 10 mg/kg three times a week for four weeks", "result": "slowed in many of the animals and in some the size of the tumor decreased"}, {"measurement": "body weight", "setting": "MDA-MB-231 [3]", "result": "maintained weight"}, {"measurement": "myelosuppression", "setting": "MDA-MB-231 [3]", "result": "not dectected"}, {"measurement": "tumor growth suppression", "setting": "MDA-MB-231 [3]; nude mice, 5 mg/kg compound (5), 20 mg/kg compound (7)", "result": "dose-dependent tumor growth suppression"}, {"measurement": "crossing of the BBB", "setting": "U251 MG [4]", "result": "crossed the BBB"}, {"measurement": "glioblastoma tumor growth (bioluminescence imaging)", "setting": "U251 MG [4]", "result": "suppressed glioblastoma tumor growth"}, {"measurement": "glioblastoma tumor growth (bioluminescence imaging)", "setting": "U251 MG [5]", "result": "dose-dependent suppression of glioblastoma tumor growth"}, {"measurement": "body weight", "setting": "[6]", "result": "maintained weight"}, {"measurement": "myelosuppression", "setting": "[6]", "result": "not dectected"}, {"measurement": "tumor growth suppression", "setting": "[6]", "result": "dose-dependent tumor growth suppression"}]}
